Values quoted from earlier work, collected in patent US20180103657A1, “FROZEN CONFECTION” (Conopco, Inc., d/b/a UNILEVER, priority 2015, published 2018).

Settings: partition coefficient at 20 degrees centigrade

Log P [flavour compounds]: 1.8
SMILES: CCCC(=O)OCC [Ethyl butyrate]
